Results: patent US8513274B2, “Ellipticine compounds for treating obesity” (Etzem, Inc., priority 2009, dated 2013)
Where a name gives a salt, the structure may show the parent alone.

Assay: Reduction of body weight with ellipticine hydrochloride in mice
Format: in vivo
Conditions: initial body weight 30 g, every weekday
Method: In order to determine the effect of ellipticine and ellipticine derivatives in reducing body weight, ellipticine hydrochloride was administered to mice every weekday for 4 weeks (30 days) and their body weights tracked. Ellipticine hydrochloride was solubilized in saline and administered via intraperitoneal injection. Animals were weighed weekly.
Mice (6 per group) were divided into seven groups and given one of the following treatments: • 1. 10 mg ellipticine hydrochloride/kg body weight (Low) • 2. 20 mg ellipticine hydrochloride/kg body weight (Mid) • 3. 30 mg ellipticine hydrochloride/kg body weight (High) • 4. Saline • 5. 3 mg/kg body weight (Positive control 2) • 6. 5 mg/kg body weight (Positive control low) • 7. 10 mg/kg body weight (Positive control high)

With Cc1c2ccncc2c(C)c2c1[nH]c1ccccc12 [ellipticine hydrochloride] the “body weight loss (decrease of body weight)” value (10 mg/kg (Low) intraperitoneal in saline, end of 4 weeks) was “more than 18%”, the body weight loss (20 mg/kg (Mid) intraperitoneal in saline, end of week 3, animals then sacrificed) was “more than 33%” and the “reduction in body weight” value (30 mg/kg (High) intraperitoneal in saline, end of week 2, animals then sacrificed) was 28%.
